Tests used:
[1] = test system: macrophages infiltrating into the tumors (MC38); assay: Evaluation of TAM polarization in mouse allogeneic tumor transplantation model; assay type: in vivo, mice; conditions: MC38, 84.5 μg i.v. on days 7, 9, 11; tumors 1 day after final administration; flow cytometry
Method: An MC38 mouse allogeneic tumor transplantation model was prepared in the same manner as in Test Example 6, and on days 7, 9, and 11 after cell transplantation, the CHP:Telratolimod solution prepared in Example 2 and the Telratolimod solution prepared in Test Example 4 were each administered via tail vein injection to 5 mice per group (amount of Telratolimod: 84.5 μg). One day after the final administration, the tumors were excised, and macrophages infiltrating into the tumors were measured by flow cytometry. Significance tests were performed using one-way ANOVA (*P<0.05, **P<0.01, ***P<0.001, ****P<0.0001).

[2] = test system: mouse colon cancer cell line MC38; assay: Antitumor evaluation in mouse allogeneic tumor transplantation model (1); assay type: in vivo, mice (C57BL/6JJmsSlc, female); conditions: MC38, 84.5 μg Telratolimod i.v. on days 7, 9, 11, 14, 16, 18; day 19
Method: A mouse allogeneic tumor transplantation model was prepared by intradermally administering 10^6 cells of the mouse colon cancer cell line MC38 into the dorsal skin of mice (C57BL/6JJmsSlc, female). Mice on day 7 after cell administration were used. 84.5 μg of CHP:Telratolimod prepared in Example 2 or Telratolimod dissolved in a solubilizing solvent (17.1% polyethylene glycol 300, 4.3% Tween 80, and 8.6% polyoxyethylene hydrogenated castor oil) was administered via tail vein injection, and changes in the concentration of Telratolimod in the blood were measured. Blood was collected from 5 mice per group. After each test drug was administered via tail vein injection, 80 μL of isopropyl alcohol was added to 20 μL of serum collected after 1 minute, 30 minutes, 1 hour, 2 hours, and 6 hours, and bead crushing was performed for 1 minute using a 5 mm diameter stainless steel ball. […] The collected supernatant was analyzed by LS-MS/MS to measure the Telratolimod concentration. […]
An MC38 mouse allogeneic tumor transplantation model was prepared in the same manner as in Test Example 4. […] Tumor sizes were measured on days 7, 9, 11, 14, 16, 18, and 19. The tumor volume was calculated by (long axis×short axis×short axis)/2. […]

reticulocytes = assay: Blood test in mouse allogeneic tumor transplantation model; assay type: in vivo; conditions: 84.5 μg i.v. on days 7, 9, 11; blood 1 day after final administration
Method: 10^6 cells of the mouse colorectal cancer cell line MC38 were administered intradermally into the dorsal skin of mice (C57BL/6JJmsSlc, female). After 7 days, 9 days, and 11 days, the Telratolimod solution prepared in Test Example 4 and the CHP:Telratolimod solution prepared in Example 2 were each administered (amount of Telratolimod: 84.5 μg) via tail vein injection to 5 mice per group. One day after the final administration, blood was collected, and changes in red blood cell and reticulocyte counts were measured. Significance tests were performed using one-way ANOVA (*P<0.05, **P<0.01, ***P<0.001, ****P<0.0001).

[3] = test system: human peripheral blood-derived M2-like macrophages (phagocytosis of HeLa cells); assay: Cancer cell phagocytosis test of human peripheral blood-derived M2-like macrophages; assay type: cell-based; conditions: 10 μM in terms of Telratolimod, 1 day, flow cytometry
Method: HeLa cells were labeled with fluorescent label 1 (CellTracker Green CMTPX Dye, ThermoFisher) for 30 minutes, then washed twice with PBS(−), and cultured overnight in medium (RPMI supplemented with 10% fetal bovine serum) containing 2.5 μM doxorubicin.
Telratolimod or CHP:Telratolimod adjusted to a final concentration of 10 μM in terms of Telratolimod was added to the basal medium, and the M2-like macrophages prepared in Test Example 11 were incubated for 1 day. After labeling with fluorescent labeling agent 2 (CellTracker Red CMTPX Dye, ThermoFisher) for 30 minutes, the cells were washed twice with PBS(−). The HeLa cells were added at a half ratio to the M2-like macrophages and co-cultured overnight. The cells were then harvested, and the number of cells co-positive for fluorescent labels 1 and 2 was determined by flow cytometry. The control was supplemented with only medium.

[4] = test system: human peripheral blood-derived TAMs; assay: Polarization test of human peripheral blood-derived TAMs (TNF-α ELISA); assay type: cell-based; conditions: 30 μM in terms of Telratolimod, 2 days incubation, culture supernatant
Method: (§1) Human peripheral blood-derived CD14-positive monocytes that had been cryopreserved in advance were awake and seeded in a 24-well tissue culture plate at 2×10^5 cells/well in 500 μL of basal medium (RPMI, 10% fetal bovine serum, 50 ng/mL M-CSF) and cultured for 3 days in a 37° C., 5% CO2 incubator, after which 500 μL of basal medium was further added, and the cells were cultured for 3 days. The medium was then replaced with 500 μL of TAM differentiation induction medium prepared by adding 10% fetal bovine serum, 50 ng/mL IL-4, 50 ng/mL IL-6, 50 ng/mL IL-10, 50 ng/mL IL-13, and 5% human AB type male donor defibrinated serum (Veritas) to a separately prepared culture supernatant of human cancer cells, and the cells were cultured for 2 days.
A Telratolimod solution or CHP:Telratolimod solution adjusted to a final concentration of 30 μM in terms of Telratolimod was added to the TAM prepared in Test Example 1, followed by incubation for 2 days, and TNF-α in the culture supernatant was measured by ELISA (BioLegend). The control was supplemented with only medium.

cytokines in serum = assay: Evaluation of cytokine release in mouse allogeneic tumor transplantation model; assay type: in vivo, mice (C57BL/6JJmsSlc, female); conditions: 84.5 μg i.v., blood after 2 hours, MC38-bearing mice
Method: The allograft model mice used were 10 days after 10^6 cells of the mouse colorectal cancer cell line MC38 were administered intradermally into the dorsal skin of mice (C57BL/6JJmsSlc, female). The Telratolimod solution prepared in Test Example 4 and the CHP:Telratolimod solution prepared in Example 2 were each administered (amount of Telratolimod: 84.5 μg) via tail vein injection to 5 mice per group, and blood was collected after 2 hours. The serum was obtained by centrifugation, and changes in the amount of cytokines were measured using LEGENDplex Mouse Inflammation Panel (BioLegend). Significance tests were performed using one-way ANOVA (*P<0.05, **P<0.01, ***P<0.001, ****P<0.0001).

[5] = test system: human peripheral blood-derived M2-like macrophages; assay: Polarization test of human peripheral blood-derived M2-like macrophages (cytokine bead assay); assay type: cell-based; conditions: 3 μM, 1 day, culture supernatant
Method: as §1, with “M2-like macrophage” for “TAM”, “adding” for “adding 10% fetal bovine serum,”, “IL-10, and” for “IL-10,”, “IL-13” for “IL-13, and 5% human AB type male donor defibrinated serum (Veritas)”, “the basal medium,” for “a separately prepared culture supernatant of human cancer cells,”
A Telratolimod solution or CHP:Telratolimod solution adjusted to a final concentration of 3 μM in terms of Telratolimod was added to the M2-like macrophages prepared in Test Example 11, followed by incubation for 1 day, and TNF-α, IL-1β, IL-6, IL-12p40 (p40 subunit of IL-12), IL-23, and CXCL10 in the culture supernatant were measured using a flow cytometry bead assay kit (LEGENDplex™, BioLegend). The control was supplemented with only medium.

[6] = test system: mouse colorectal cancer cell line CT26; assay: Antitumor evaluation in mouse allogeneic tumor transplantation model (2); assay type: in vivo, mice (BALB/cCrSlc, female); conditions: Telratolimod 42 μg i.v. days 7, 9, 11, 14, 16, 18, anti-PD-1 antibody 100 μg i.p. days 7, 11, 14, 18
Method: A mouse allogeneic tumor transplantation model was prepared by intradermally administering 10^6 cells of the mouse colorectal cancer cell line CT26 into the dorsal skin of mice (BALB/cCrSlc, female). On days 7, 9, 11, 14, 16, and 18 after cell transplantation, the CHP:Telratolimod solution prepared in Example 2 and the Telratolimod solution prepared in Test Example 4 were each administered via tail vein injection, and on days 7, 11, 14, and 18 after cell transplantation, an anti-PD-1 antibody (RMP1-14, Bio X Cell) solution was administered intraperitoneally, to 5 mice per group (amount of Telratolimod: 42 μg, amount of anti-PD-1 antibody: 100 μg). One group received a combination of the CHP:Telratolimod solution and the anti-PD-1 antibody. Tumor sizes were measured on days 7, 9, 11, 14, 16, 18, and 21. The tumor volume was calculated by (long axis×short axis×short axis)/2. The negative control is an untreated group.

[7] = Blood concentration changes in mouse allogeneic tumor transplantation model; assay type: in vivo, mice (C57BL/6JJmsSlc, female); conditions: 84.5 μg via tail vein injection, MC38-bearing mice, serum 1 min to 6 hours
Method: A mouse allogeneic tumor transplantation model was prepared by intradermally administering 10^6 cells of the mouse colon cancer cell line MC38 into the dorsal skin of mice (C57BL/6JJmsSlc, female). Mice on day 7 after cell administration were used. 84.5 μg of CHP:Telratolimod prepared in Example 2 or Telratolimod dissolved in a solubilizing solvent (17.1% polyethylene glycol 300, 4.3% Tween 80, and 8.6% polyoxyethylene hydrogenated castor oil) was administered via tail vein injection, and changes in the concentration of Telratolimod in the blood were measured. Blood was collected from 5 mice per group. After each test drug was administered via tail vein injection, 80 μL of isopropyl alcohol was added to 20 μL of serum collected after 1 minute, 30 minutes, 1 hour, 2 hours, and 6 hours, and bead crushing was performed for 1 minute using a 5 mm diameter stainless steel ball. Further, 400 μL of an 80% isopropyl alcohol and 20% acetonitrile solution was added and mixed, followed by sonication for 3 minutes, and centrifugation at 12000 g for 5 minutes to collect the supernatant. The collected supernatant was analyzed by LS-MS/MS to measure the Telratolimod concentration. […]

[8] = test system: human peripheral blood-derived TAMs (phagocytosis of HeLa cells); assay: Cancer cell phagocytosis test of human peripheral blood-derived TAMs; assay type: cell-based; conditions: 10 μM in terms of Telratolimod, 2 days, doxorubicin-treated HeLa cells, flow cytometry
Method: HeLa cells were labeled with fluorescent label 1 (CellTracker Green CMTPX Dye, ThermoFisher) for 30 minutes, then washed twice with PBS(−), and cultured overnight in medium (RPMI supplemented with 10% fetal bovine serum) containing 1.25 μM doxorubicin.
TAMs were prepared in the same manner as in Test Example 1, and Telratolimod or CHP:Telratolimod adjusted to a final concentration of 10 μM in terms of Telratolimod was added to the basal medium, followed by incubation for 2 days. After labeling with fluorescent labeling agent 2 (CellTracker Red CMTPX Dye, ThermoFisher) for 30 minutes, the cells were washed twice with PBS(−). The doxorubicin-treated HeLa cells were added at a half ratio to the TAMs and co-cultured overnight. The cells were then harvested, and the number of cells co-positive for fluorescent labels 1 and 2 was determined by flow cytometry. The control was supplemented with only medium.

[9] = Examination of encapsulation of TLR7 and TLR8 agonists in CHP nanogel (Example 1); assay type: physicochemical; conditions: CHP in 6 M urea in PBS(−), stepwise dialysis against PBS(−)
Method: Nine TLR7 and TLR8 agonists (Telratolimod, Motolimod, Vesatolimod, Resiquimod, Imiquimod, CL075, CU-CPT17e, CU-CPT9a, and PF-4878691) were examined for whether they could be encapsulated in CHP nanogel. CHP was dissolved in a 6 M urea solution in PBS(−), and a compound solution was added thereto. Then, stepwise dialysis was performed against PBS(−).

For CCCCCCCCCCCCCCCCCC(=O)NCCCCOn1c(CCCC)nc2c(N)nc3ccccc3c21 [Telratolimod], the “expression of ARG1 (M2-like macrophage marker)” value [1] was “tended to decrease”, the “expression of iNOS (M1-like macrophage marker)” value [1] was “significantly increased” and the “growth inhibition compared to the solvent control” value [2] was 49%. The “change in reticulocytes (bone marrow toxicity indicator)” value (reticulocytes) was “significant decrease”, the Phagocytosis rate [3] was 9.7% and the TNF-α [4] was 700 pg/mL. The IFN-β in serum (cytokines in serum) was “rapid increases”, the IL-6 in serum (cytokines in serum) was “rapid increases” and the MCP-1 in serum (cytokines in serum) was “rapid increases”. It also gave a CXCL10 [5] of 140 ± 20 pg/mL, an IL-1β [5] of 2.3 ± 0.64 pg/mL and an IL-6 [5] of 3100 ± 380 pg/mL. For the same compound, the IL-12p40 [5] was 59 ± 22 pg/mL, the IL-23 [5] was 1.4 ± 0.35 pg/mL and the TNF-α [5] was 40 ± 7.3 pg/mL. The “antitumor effect (tumor volume)” value [6] was “limited”, the “blood concentration of Telratolimod over time” value [7] was “rapidly decreased within 30 minutes after administration” and the Phagocytosis rate [8] was 5.5%. The “whether the compound could be encapsulated in CHP nanogel and formed into a solution” value [9] was “could be stably encapsulated in the CHP nanogel and formed into a solution”.
